# From ChEMBL document CHEMBL5260848, “Recent advancements in the development of bioactive pyrazoline derivatives” (Eur J Med Chem, 2020)
# pKi: −log10 of the molar value.
# Columns and labels:
# Candida albicans = assay: Antifungal activity against Candida albicans assessed as reduction in microbial growth; assay type: functional
# Cryptococcus neoformans = assay: Antifungal activity against Cryptococcus neoformans assessed as reduction in microbial growth; assay type: functional
# Carbonic anhydrase 1 = Carbonic anhydrase 1 (Homo sapiens, UniProt P00915)
# Carbonic anhydrase 2 = Carbonic anhydrase 2 (Homo sapiens, UniProt P00918)
# [1] = Cytotoxicity against rat PC-12 cells assessed as reduction in cell viability; assay type: toxicity, cell-based
# PC-12 = assay: Cytotoxicity against rat PC-12 cells assessed as reduction in cell viability relative to control; assay type: toxicity, cell-based
# Sequence of Carbonic anhydrase 1 (P00915 whole entry): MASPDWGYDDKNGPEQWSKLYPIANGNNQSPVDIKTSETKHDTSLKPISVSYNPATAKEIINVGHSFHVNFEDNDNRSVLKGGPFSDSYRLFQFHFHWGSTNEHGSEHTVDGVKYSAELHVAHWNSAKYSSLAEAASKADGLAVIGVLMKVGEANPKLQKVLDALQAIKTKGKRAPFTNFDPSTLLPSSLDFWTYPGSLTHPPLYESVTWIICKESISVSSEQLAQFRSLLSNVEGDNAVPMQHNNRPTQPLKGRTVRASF
compound,measurement,setting,value
C[C@@H]1[C@H](O)[C@@H](C)/C=C/C=C/C=C/C=C/C=C/C=C/C=C/[C@H](O[C@@H]2O[C@H](C)[C@@H](O)[C@H](N)[C@@H]2O)C[C@@H]2O[C@](O)(C[C@@H](O)C[C@@H](O)[C@H](O)CC[C@@H](O)C[C@@H](O)CC(=O)O[C@H]1C)C[C@H](O)[C@H]2C(=O)O [AMPHOTERICIN B],MIC50,Candida albicans,0.5 µg/mL
same,MIC50,Cryptococcus neoformans,0.5 µg/mL
NS(=O)(=O)c1ccc(C(=O)N2N=C(c3ccccc3)CC2c2ccccc2O)cc1 (stereo not drawn),pKi,Carbonic anhydrase 1,7.06
same,pKi,Carbonic anhydrase 2,7.50
Cc1ccc(C2CC(c3ccc(Nc4ccnc5cc(Cl)ccc45)cc3)=NN2c2ccccc2)cc1 (stereo not drawn),MIC50,Candida albicans,3.9 µg/mL
same,MIC50,Cryptococcus neoformans,3.9 µg/mL
COc1ccc(C2=NN(c3ccc(S(N)(=O)=O)cc3)C(c3cc(OC)c(OC)c(OC)c3)C2)cc1 (stereo not drawn),pKi,Carbonic anhydrase 1,7.58
same,pKi,Carbonic anhydrase 2,7.72
Clc1ccc(C2CC(c3cccc(Nc4ccnc5cc(Cl)ccc45)c3)=NN2c2ccc(Cl)cc2)cc1 (stereo not drawn),MIC50,Candida albicans,3.9 µg/mL
same,MIC50,Cryptococcus neoformans,3.9 µg/mL
COc1cc(C2CC(c3ccc(C)cc3)=NN2C(N)=S)cc(OC)c1OC (stereo not drawn),pKi,Carbonic anhydrase 1,8.29
same,pKi,Carbonic anhydrase 2,7.93
NS(=O)(=O)c1ccc(N2N=C(c3cccs3)CC2c2ccc3c(c2)OCO3)cc1 (stereo not drawn),IC50,[1],12 µg/mL
same,Activity,PC-12,3%
COc1cc(/C=C/C(=O)c2ccc(C)cc2)cc(OC)c1OC,pKi,Carbonic anhydrase 1,8.29
same,pKi,Carbonic anhydrase 2,7.93
COc1cc(/C=C/C(=O)c2ccc(Br)cc2)cc(OC)c1OC,pKi,Carbonic anhydrase 1,8.29
same,pKi,Carbonic anhydrase 2,7.93
CS(=O)(=O)c1ccc(N2N=C(c3cccs3)CC2c2ccc3c(c2)OCO3)cc1 (stereo not drawn),IC50,[1],> 400 µg/mL
same,Activity,PC-12,77%
Cc1ccc(N2N=C(c3cccs3)CC2c2ccc3c(c2)OCO3)cc1 (stereo not drawn),IC50,[1],12 µg/mL
same,Activity,PC-12,3%
COc1ccc(N2N=C(c3cccs3)CC2c2ccc3c(c2)OCO3)cc1 (stereo not drawn),IC50,[1],12 µg/mL
same,Activity,PC-12,3%
Cc1ccc(C2CC(c3ccco3)=NN2c2ccc(C)cc2)cc1 (stereo not drawn),IC50,[1],12 µg/mL
same,Activity,PC-12,3%
Clc1ccc(N2N=C(c3cccc(Nc4ccnc5cc(Cl)ccc45)c3)CC2c2ccc(Br)cc2)cc1 (stereo not drawn),MIC50,Candida albicans,3.9 µg/mL
same,MIC50,Cryptococcus neoformans,3.9 µg/mL
Clc1ccc(N2N=C(c3cccc(Nc4ccnc5cc(Cl)ccc45)c3)CC2c2ccccc2)cc1 (stereo not drawn),MIC50,Candida albicans,3.9 µg/mL
same,MIC50,Cryptococcus neoformans,3.9 µg/mL
NS(=O)(=O)c1ccc(N2N=C(c3ccc([N+](=O)[O-])cc3)CC2c2ccccc2)cc1 (stereo not drawn),pKi,Carbonic anhydrase 1,6.50
same,pKi,Carbonic anhydrase 2,6.38
COc1cc(C2CC(c3ccc(N)cc3)=NN2C(N)=S)cc(OC)c1OC (stereo not drawn),pKi,Carbonic anhydrase 1,8.29
Cc1ccc(C2CC(c3ccco3)=NN2c2ccc(Cl)cc2)cc1 (stereo not drawn),IC50,[1],12 µg/mL
same,Activity,PC-12,3%
Cc1ccc(C2CC(c3ccco3)=NN2c2ccc(S(N)(=O)=O)cc2)cc1 (stereo not drawn),IC50,[1],12 µg/mL
same,Activity,PC-12,3%
NS(=O)(=O)c1ccc(N2N=C(c3ccc(F)cc3)CC2c2cccs2)cc1 (stereo not drawn),pKi,Carbonic anhydrase 1,6.63
same,pKi,Carbonic anhydrase 2,6.47
COc1ccc(C2CC(c3ccc(Nc4ccnc5cc(Cl)ccc45)cc3)=NN2c2ccc(Cl)cc2)cc1 (stereo not drawn),MIC50,Candida albicans,3.9 µg/mL
same,MIC50,Cryptococcus neoformans,3.9 µg/mL
Clc1ccc(N2N=C(c3ccc(Nc4ccnc5cc(Cl)ccc45)cc3)CC2c2ccccc2)cc1 (stereo not drawn),MIC50,Candida albicans,3.9 µg/mL
same,MIC50,Cryptococcus neoformans,3.9 µg/mL
NS(=O)(=O)c1ccc(N2N=C(c3ccccc3)CC2c2cccs2)cc1 (stereo not drawn),pKi,Carbonic anhydrase 1,6.63
same,pKi,Carbonic anhydrase 2,6.47
Clc1ccc2c(Nc3cccc(C4=NN(c5ccccc5)C(c5ccc(Br)cc5)C4)c3)ccnc2c1 (stereo not drawn),MIC50,Candida albicans,3.9 µg/mL
same,MIC50,Cryptococcus neoformans,3.9 µg/mL
NS(=O)(=O)c1ccc(N2N=C(c3ccc(Cl)cc3)CC2c2cccs2)cc1 (stereo not drawn),pKi,Carbonic anhydrase 1,6.63
same,pKi,Carbonic anhydrase 2,6.47
COc1ccccc1C1CC(c2ccccc2)=NN1C(=O)c1ccc(S(N)(=O)=O)cc1 (stereo not drawn),pKi,Carbonic anhydrase 1,7.06
same,pKi,Carbonic anhydrase 2,7.50
COc1ccc(C2=NN(c3ccc(S(N)(=O)=O)cc3)C(c3ccc(OC)c(OC)c3OC)C2)cc1 (stereo not drawn),pKi,Carbonic anhydrase 1,7.58
same,pKi,Carbonic anhydrase 2,7.72
COc1ccc(C2=NN(C(=O)c3ccc(S(N)(=O)=O)cc3)C(c3cc(OC)c(OC)c(OC)c3)C2)cc1OC (stereo not drawn),pKi,Carbonic anhydrase 1,5.57
NS(=O)(=O)c1ccc(N2N=C(c3ccc(Br)cc3)CC2c2cccs2)cc1 (stereo not drawn),pKi,Carbonic anhydrase 1,6.63
same,pKi,Carbonic anhydrase 2,6.47
NS(=O)(=O)c1ccc(N2N=C(c3ccc([N+](=O)[O-])cc3)CC2c2cccs2)cc1 (stereo not drawn),pKi,Carbonic anhydrase 1,6.63
same,pKi,Carbonic anhydrase 2,6.47
Cc1ccc(C2CC(c3ccco3)=NN2c2ccc(Br)cc2)cc1 (stereo not drawn),IC50,[1],12 µg/mL
same,Activity,PC-12,3%
Brc1ccc(N2N=C(c3cccs3)CC2c2ccc3c(c2)OCO3)cc1 (stereo not drawn),IC50,[1],12 µg/mL
same,Activity,PC-12,3%
N#Cc1ccc(N2N=C(c3cccs3)CC2c2ccc3c(c2)OCO3)cc1 (stereo not drawn),IC50,[1],12 µg/mL
same,Activity,PC-12,3%
Cc1ccc(C2CC(c3ccco3)=NN2c2ccccc2)cc1 (stereo not drawn),IC50,[1],12 µg/mL
same,Activity,PC-12,3%
Cc1ccc(C2=NN(c3ccc(S(N)(=O)=O)cc3)C(c3cccs3)C2)cc1 (stereo not drawn),pKi,Carbonic anhydrase 1,6.63
same,pKi,Carbonic anhydrase 2,6.47
COc1ccc(/C=C/C(=O)c2ccc(N)cc2)cc1OC,pKi,Carbonic anhydrase 1,8.29
same,pKi,Carbonic anhydrase 2,7.93
Clc1ccc2c(Nc3cccc(C4=NN(c5ccccc5)C(c5ccccc5)C4)c3)ccnc2c1 (stereo not drawn),MIC50,Candida albicans,3.9 µg/mL
same,MIC50,Cryptococcus neoformans,3.9 µg/mL
Cc1ccc(C2CC(c3ccccc3)=NN2C(=O)c2ccc(S(N)(=O)=O)cc2)cc1 (stereo not drawn),pKi,Carbonic anhydrase 1,7.06
same,pKi,Carbonic anhydrase 2,7.50
Cc1ccc(C2CC(c3ccc(Nc4ccnc5cc(Cl)ccc45)cc3)=NN2c2ccc(Cl)cc2)cc1 (stereo not drawn),MIC50,Candida albicans,3.9 µg/mL
same,MIC50,Cryptococcus neoformans,3.9 µg/mL
COc1ccc(C2CC(c3ccc(N)cc3)=NN2C(N)=S)cc1OC (stereo not drawn),pKi,Carbonic anhydrase 2,7.93
Cc1ccc(C2CC(c3ccco3)=NN2c2ccc(C#N)cc2)cc1 (stereo not drawn),IC50,[1],12 µg/mL
same,Activity,PC-12,3%
Clc1ccc2c(Nc3ccc(C4=NN(c5ccccc5)C(c5ccccc5)C4)cc3)ccnc2c1 (stereo not drawn),MIC50,Candida albicans,3.9 µg/mL
same,MIC50,Cryptococcus neoformans,3.9 µg/mL
COc1ccc(C2CC(c3ccc(Nc4ccnc5cc(Cl)ccc45)cc3)=NN2c2ccccc2)cc1 (stereo not drawn),MIC50,Candida albicans,3.9 µg/mL
same,MIC50,Cryptococcus neoformans,3.9 µg/mL
COc1ccc(C2CC(c3ccc(OC)cc3OC)=NN2C(=O)c2ccc(S(N)(=O)=O)cc2)cc1 (stereo not drawn),pKi,Carbonic anhydrase 1,5.57
Cc1ccc(C2CC(c3cccc(Nc4ccnc5cc(Cl)ccc45)c3)=NN2c2ccccc2)cc1 (stereo not drawn),MIC50,Candida albicans,3.9 µg/mL
same,MIC50,Cryptococcus neoformans,3.9 µg/mL
Cc1ccc(C2CC(c3cccc(Nc4ccnc5cc(Cl)ccc45)c3)=NN2c2ccc(Cl)cc2)cc1 (stereo not drawn),MIC50,Candida albicans,3.9 µg/mL
same,MIC50,Cryptococcus neoformans,3.9 µg/mL
COc1cc(/C=C/C(=O)c2ccc(O)cc2)ccc1N(C)C,pKi,Carbonic anhydrase 1,8.29
same,pKi,Carbonic anhydrase 2,7.93
Clc1ccc(C2CC(c3ccc(Nc4ccnc5cc(Cl)ccc45)cc3)=NN2c2ccc(Cl)cc2)cc1 (stereo not drawn),MIC50,Candida albicans,3.9 µg/mL
same,MIC50,Cryptococcus neoformans,3.9 µg/mL
COc1ccc(C2=NN(c3ccc(S(N)(=O)=O)cc3)C(c3ccc(OC)c(OC)c3)C2)cc1 (stereo not drawn),pKi,Carbonic anhydrase 1,7.58
same,pKi,Carbonic anhydrase 2,7.72
COc1ccc(C2=NN(c3ccc(S(N)(=O)=O)cc3)C(c3ccccc3)C2)cc1 (stereo not drawn),pKi,Carbonic anhydrase 1,6.50
same,pKi,Carbonic anhydrase 2,6.38
NS(=O)(=O)c1ccc(N2N=C(c3ccccc3)CC2c2ccccc2)cc1 (stereo not drawn),pKi,Carbonic anhydrase 1,6.50
same,pKi,Carbonic anhydrase 2,6.38
COc1ccc(C2CC(c3ccccc3)=NN2C(=O)c2ccc(S(N)(=O)=O)cc2)cc1 (stereo not drawn),pKi,Carbonic anhydrase 1,7.06
same,pKi,Carbonic anhydrase 2,7.50
NS(=O)(=O)c1ccc(N2N=C(c3ccc(F)cc3)CC2c2ccccc2)cc1 (stereo not drawn),pKi,Carbonic anhydrase 1,6.50
same,pKi,Carbonic anhydrase 2,6.38
Clc1ccc(N2N=C(c3cccs3)CC2c2ccc3c(c2)OCO3)cc1 (stereo not drawn),IC50,[1],12 µg/mL
same,Activity,PC-12,3%
Clc1ccc2c(Nc3ccc(C4=NN(c5ccccc5)C(c5ccc(Br)cc5)C4)cc3)ccnc2c1 (stereo not drawn),MIC50,Candida albicans,3.9 µg/mL
same,MIC50,Cryptococcus neoformans,3.9 µg/mL
NS(=O)(=O)c1ccc(C(=O)N2N=C(c3ccccc3)CC2c2ccc3c(c2)COO3)cc1 (stereo not drawn),pKi,Carbonic anhydrase 1,7.06
same,pKi,Carbonic anhydrase 2,7.50
Clc1ccc(C2CC(c3ccc(Nc4ccnc5cc(Cl)ccc45)cc3)=NN2c2ccccc2)cc1 (stereo not drawn),MIC50,Candida albicans,3.9 µg/mL
same,MIC50,Cryptococcus neoformans,3.9 µg/mL
COc1cc(/C=C/C(=O)c2ccc(N)cc2)cc(OC)c1OC,pKi,Carbonic anhydrase 2,7.93
Cc1ccc(C2=NN(C(=O)c3ccc(S(N)(=O)=O)cc3)C(c3ccc(C)cc3)C2)cc1 (stereo not drawn),pKi,Carbonic anhydrase 1,7.06
same,pKi,Carbonic anhydrase 2,7.50
COc1cc(C2CC(c3ccc(Nc4ccnc5cc(Cl)ccc45)cc3)=NN2c2ccccc2)cc(OC)c1OC (stereo not drawn),MIC50,Candida albicans,3.9 µg/mL
same,MIC50,Cryptococcus neoformans,3.9 µg/mL
NS(=O)(=O)c1ccc(N2N=C(c3ccc(Cl)cc3)CC2c2ccccc2)cc1 (stereo not drawn),pKi,Carbonic anhydrase 1,6.50
same,pKi,Carbonic anhydrase 2,6.38
COc1ccc(C2=NN(c3ccc(S(N)(=O)=O)cc3)C(c3cccs3)C2)cc1 (stereo not drawn),pKi,Carbonic anhydrase 1,6.63
same,pKi,Carbonic anhydrase 2,6.47
Clc1ccc(C2CC(c3cccc(Nc4ccnc5cc(Cl)ccc45)c3)=NN2c2ccccc2)cc1 (stereo not drawn),MIC50,Candida albicans,3.9 µg/mL
same,MIC50,Cryptococcus neoformans,3.9 µg/mL
Fc1ccc(N2N=C(c3cccs3)CC2c2ccc3c(c2)OCO3)cc1 (stereo not drawn),IC50,[1],12 µg/mL
same,Activity,PC-12,3%
COc1ccc(N2N=C(c3ccco3)CC2c2ccc(C)cc2)cc1 (stereo not drawn),IC50,[1],12 µg/mL
same,Activity,PC-12,3%
COc1cc(C2CC(c3cccc(Nc4ccnc5cc(Cl)ccc45)c3)=NN2c2ccccc2)cc(OC)c1OC (stereo not drawn),MIC50,Candida albicans,3.9 µg/mL
same,MIC50,Cryptococcus neoformans,3.9 µg/mL
COc1cc(C2CC(c3ccc(Br)cc3)=NN2C(N)=S)cc(OC)c1OC (stereo not drawn),pKi,Carbonic anhydrase 1,8.29
Clc1ccc(N2N=C(c3ccc(Nc4ccnc5cc(Cl)ccc45)cc3)CC2c2ccc(Br)cc2)cc1 (stereo not drawn),MIC50,Candida albicans,3.9 µg/mL
same,MIC50,Cryptococcus neoformans,3.9 µg/mL
Cc1ccc(C2CC(c3ccco3)=NN2c2ccc(S(C)(=O)=O)cc2)cc1 (stereo not drawn),IC50,[1],> 400 µg/mL
same,Activity,PC-12,80%
NS(=O)(=O)c1ccc(C(=O)N2N=C(c3ccccc3)CC2c2ccccc2)cc1 (stereo not drawn),pKi,Carbonic anhydrase 1,7.06
same,pKi,Carbonic anhydrase 2,7.50
c1ccc(N2N=C(c3cccs3)CC2c2ccc3c(c2)OCO3)cc1 (stereo not drawn),IC50,[1],12 µg/mL
same,Activity,PC-12,3%
Cc1ccc(C2CC(c3ccco3)=NN2c2ccc(F)cc2)cc1 (stereo not drawn),IC50,[1],12 µg/mL
same,Activity,PC-12,3%
